According to patent US20090275503A1, “DIASTEREOMERIC PEPTIDES FOR MODULATING T CELL IMMUNITY” (Yeda Research and Developent Co., Ltd. at the Weizman …, priority 2005, published 2009):
Non-standard residues stand in square brackets, D forms with d. No end group written: not given here.

Assays:
rat TCR = assay: Co-immunoprecipitation of fluorescence-labeled peptides with TCR molecules; format: binding; conditions: Rho-labeled peptides, activated A2b T cells
Protocol: Activated A2b T cells (2×10^6) were cultured for 1 hr at 37° C. in the presence of CP or 2D-CP (25 μg/ml), or 2G-CP, and lysed for 15 min on ice in 0.1 ml lysis buffer (Adachi et al., 1996). Insoluble material was removed by centrifugation at 10.000 g for 10 min at 4° C. The lysate was then incubated overnight with Protein A-plus Agarose beads (Santa Cruz Biotechnology Inc., Santa Cruz, Calif., USA) bound to antibodies to the rat TCR or MHC class 1. The antibodies reactive against the rat TCR (clone R73) or HSP60 (clone LKI) were purified from the respective hybridomas at our lab; antibodies to rat CD28, actin and the rat MHC class 1 were purchased from Serotec (Oxford, UK). After an overnight incubation at 4° C., the beads were washed with lysis buffer, boiled for 10 minutes and the protein supernatant run in a 4-20% SDS-PAGE. The presence of co-immunoprecipitated peptide was detected by the Typhoon 9400 variable mode imager.
Next, co-immunoprecipitation experiments were performed. The affinity of the TCR/CP, the TCR/2D-CP and TCR/2G-CP interactions were compared by performing a series of co-precipitation experiments using different concentrations of Rho-labeled CP, 2D-CP and 2G-CP peptides.

TCR = assay: Fluorescence microscopy: co-localization and fluorescence energy transfer with TCR on activated A2b T cells; format: binding, rat
Protocol: Activated A2b T cells (van Eden et al., 1988) (10^5 cells/sample) were incubated in 100 μl of PBS containing Para-formaldehyde 4% for 15 min on ice. The samples were then washed with cold PBS and centrifuged for 7 min at 1100 rpm. PBS containing BSA 1% was then added at room temperature to prevent non-specific binding. After 30 min FITC-labeled antibody against TCR was added at dilution of 1:100 and incubated for 2.5 hr. For co-localization of TCR with the peptide, Rhodamine 2D-CP was added at a final concentration of 1 μM (stock in DMSO) and incubated for 5 min. Sample were then washed once with PBS and loaded on a microscope slide.
The cells were then observed under a fluorescent confocal microscope. […] Fluorescence data was collected from 505-525 nm. […] Fluorescence data was collected from 560 nm and up.
Fluorescence energy transfer between the FITC (donor) and rhodamine (acceptor) was detected as an increase in FITC fluorescence in an area where the rhodamine probe was bleached. […] To verify that the increase in FITC fluorescence is not due to auto fluorescence, bleaching was performed using the 488 nm laser first and only then at 543 nm. […]
To confirm these co-localization results, the inventors performed fluorescence energy transfer experiments between Rhodamine 2D-CP and αTCR-FITC. […] To rule out auto-fluorescence as a source of increased signal in the […] range, two controls were used. […]

target cells = assay: Cytotoxic effect on the target cells (Part A); conditions: incubated with the target cells
BALB/c mice = assay: Delayed type hypersensitivity to oxazalone in mice; format: in vivo, mouse
Protocol: Groups of 5 female inbred BALB/c mice (The Jackson Laboratory) were sensitized on the shaved abdominal skin with 100 μl of 2% Oxazalone dissolved in acetone/olive oil [4:1 (vol/vol)] applied topically. DTH sensitivity was elicited 5 days later by challenging the mice with 20 μl of 0.5% Oxazalone in acetone/olive oil, 10 μl administered topically to each side of the ear. A constant area of the ear was measured immediately before challenge and 24 h after challenge with a Mitutoyo engineer's micrometer. The individual measuring ear swelling was unaware of the identity of the groups of mice. The DTH reaction is presented as the increment of ear swelling after challenge expressed as the mean±SEM in units of 10-2 mm. One hour after the challenge the mice's ears were treated topically with either all-L CP or with 2D-CP, both dissolved in 40 μl DMSO. The activity of the peptide treatments was compared to treatment with DMSO alone for “untreated mice” and Dexamethasone (100 μg/ml in saline) as a positive control.
To test whether TCR trans-membrane peptides could inhibit the elicitation of existing DTH reactivity, groups of naïve BALB/c mice were sensitized to 2% oxazalone. Five days later, the mice were challenged with 0.5% oxazalone administered to the ear. An hour after the challenge, the mice were treated with Dimethylsulfoxide (DMSO), all-L CP 150 μg (6 mg/kg) in DMSO, 2D-CP 150 μg (6 mg/kg) in DMSO, or dexamethasone, applied topically. On the following day, ear thickness was measured the swelling of DMSO treated mice (0.33±0.01 mm) was compared to that of mice treated with all-L CP (0.30±0.01 mm), 2D-CP (0.27±0.01 mm) and Dexamethasone (0.15±0.02 mm). […] Thus, 2D-CP can inhibit a T-cell mediated immune reaction in subjects already sensitized to the antigen.

Lewis rats = assay: Delayed type hypersensitivity to PPD in AA rats (Part A); format: in vivo, rat; conditions: 16 days after AA induction, ear thickness 48 hr after PPD
Protocol: Twenty μl of PPD (0.5 mg/ml in PBS) were injected intradermally into the pinna of the right ear of each rat on day 16 after AA induction; 20 μl of sterile PBS were injected in the left ear as control. The thickness of the ear was measured 48 hr later using a vernier caliper and expressed as the difference between the right and the left ear (Quintana et al., 2005).

Sequence: GLRILLLKV [2D-CP] (GL[dR]ILLL[dK]V-NH2; also: rhodamine label, position not given here) [CP diastereomer]
- Co-precipitation with the TCR (rat TCR): can be co-precipitated with the TCR
- Co-localization with the TCR on the T-cell membrane (TCR; rhodamine-labeled peptide 1 μM, αTCR-FITC, activated A2b T cells): co-localizes with the TCR
- Fluorescence energy transfer between rhodamine peptide and αTCR-FITC after bleaching at 543 nm (TCR; rhodamine-labeled peptide, point bleach 6 sec): significant increase in the fluorescence of the αTCR-FITC
- Cytotoxic effect (target cells): None of the peptides (all-L CP, 2D-CP or 2G CP) had a cytotoxic effect
- Reduction in ear swelling compared with all-L CP (BALB/c mice; 150 μg (6 mg/kg) topical in DMSO): twice the reduction
- Ear swelling (BALB/c mice; topical treatment 1 hr after oxazalone challenge, peptides 150 μg (6 mg/kg) in DMSO, measured following day): 0.27±0.01 mm
- Reduction in the DTH response to PPD (Lewis rats): 51%
